Here are results for 17 compounds from patent publication US6207674A, “Dextromethorphan and oxidase inhibitor for weaning patients from narcotics and anti-depressants” (priority 1999, dated 2001).

The subject of data set [1] is cytochrome P450-2D6 enzyme. Particulars: cited from earlier work.
For a further data set, the system named is pain. Particulars: DM combined with morphine; published reports; cited from earlier work.
Data set [2] deals with morphine and anti-depressant dependence. Put plainly: Patient Number 1, initial 3-week trial of DM alone (neuropathic pain, weaning from morphine and anti-depressants). The class given is in vivo, human. The source says:
They took capsules with 30 milligrams of DM, twice each day.

The conditions of data set [3]: coadministration with DM; cited from earlier work.
Setting [4] is: DM 30 mg twice a day, oral, about three weeks, no quinidine.
Setting [5] is: read-out: Michaelis-Menton inhibition (Ki) value, P450-2D6, in vitro, Inaba et al 1985.

Read-outs that look alike come from different tables or passages of the source.

As to `COCCc1ccc(OCC(O)CNC(C)C)cc1` (racemic) [metaprolol], in data set [1], the Ki is 18 µM.

For the compound `COc1ccc2c(c1)[C@]13CCCC[C@@H]1[C@H](C2)N(C)CC3` [DM, dextromethorphan], in the data set on pain, the “potentiation of pain-relieving activity of morphine” value is recorded as “potentiated the pain-relieving activity of morphine”. For the same compound, in data set [2] (setting [4]), the “symptoms reported at follow-up exam” value was “symptoms were unchanged”; the “use and dosages of morphine and WELLBUTRIN” value is given as “remained the same”. Further, the “nighttime dosage of ELAVIL at follow-up” value in data set [2] (reduced from 250 mg, DM 30 mg twice a day, about three weeks, no quinidine) is reported as 100 mg. Further, the “overall result of DM by itself (summary)” value in data set [2] (without an oxidase inhibitor) was “no substantial benefit”.

Turning to `CNCCC(Oc1ccc(C(F)(F)F)cc1)c1ccccc1` (stereo not shown) [Fluoxetine, fluoxetine], in data set [3], the “effect on DM concentration / level in blood” value was “increase the concentrations of DM”. Take `C=C[C@H]1C[N@@]2CC[C@H]1C[C@@H]2[C@@H](O)c1ccnc2ccc(OC)cc12` [Quinidine, quinidine]: the Ki in data set [1] (setting [5]) was 0.06 µM. The “effect on DM concentration / level in blood” value in data set [3] is listed as “increase the level of DM in the blood of most patients”. With `CC[C@H]1[C@@H]2C[C@H]3[C@@H]4N(C)c5ccccc5[C@]45C[C@@H]([C@H]2[C@H]5O)N3[C@@H]1O` [ajmaline], the Ki in data set [1] (setting [5]) is 2 µM.

Take `O=c1[nH]c2ccccc2n1CCCN1CCC(n2c(=O)[nH]c3cc(Cl)ccc32)CC1` [domperidone]: the Ki in data set [1] (setting [5]) was 8 µM. With `O=C(CCCN1CCC(O)(c2ccc(Cl)cc2)CC1)c1ccc(F)cc1` [haloperidol], in data set [1], the inhibition constant (Ki) is 1 µM.

For the compound `CC(CCc1ccccc1)NCC(O)c1ccc(O)c(C(N)=O)c1` (stereo not shown) [labetalol], the Ki in data set [1] (setting [5]) is 7 µM. On to `CN1[C@@H](CC(=O)c2ccccc2)CCC[C@H]1C[C@H](O)c1ccccc1` [lobeline], for which the Ki in data set [1] (setting [5]) was 2 µM. As to `Cc1cccc(C)c1OCC(C)N` (stereo not shown) [mexiletine], the Ki in data set [1] (setting [5]) was 30 µM. Regarding `CNCCC=C1c2ccccc2CCc2ccccc21` [nortriptyline], the Ki in data set [1] (setting [5]) is 15 µM. As for `C=CCOc1ccccc1OCC(O)CNC(C)C` (stereo not shown) [oxprenolol], the inhibitory constant (Ki) in data set [1] (setting [5]) is 15 µM. Take `COc1ccc(Cc2nccc3cc(OC)c(OC)cc23)cc1OC` [papaverine]: the inhibitory constant (Ki) in data set [1] (setting [5]) is 25 µM.

As to `NC(=O)C1(N2CCCCC2)CCN(CCCC(=O)c2ccc(F)cc2)CC1` [pipamperone], in data set [1], the Ki is 4 µM.

For `CC(C)NCC(O)COc1cccc2ccccc12` (stereo not shown) [propranolol], the Ki in data set [1] (setting [5]) was 15 µM. For the compound `C=C[C@H]1C[N@@]2CC[C@H]1C[C@H]2[C@H](O)c1ccnc2ccc(OC)cc12` [quinine], the Ki in data set [1] (setting [5]) was 15 µM. In the case of `CC(C)(C)NC[C@H](O)COc1nsnc1N1CCOCC1` [timolol], the Ki in data set [1] (setting [5]) was 18 µM.
